This experiment concerns the target T1, ERK2 (Rattus norvegicus, UniProt P63086).
T1 construct: gene Mapk1; full-length ERK2
Description: fluorescence anisotropy displacement of FITC D-site peptide; also protein NMR, intact MS, kinact/Ki. It counts as binding.

The results in this text go back to PMC6863825, “Modulating multi-functional ERK complexes by covalent targeting of a recruitment site in vivo” (Nature Communications, 2019).

The structures appear in SMILES notation.

T1 sequence (P63086 2-358): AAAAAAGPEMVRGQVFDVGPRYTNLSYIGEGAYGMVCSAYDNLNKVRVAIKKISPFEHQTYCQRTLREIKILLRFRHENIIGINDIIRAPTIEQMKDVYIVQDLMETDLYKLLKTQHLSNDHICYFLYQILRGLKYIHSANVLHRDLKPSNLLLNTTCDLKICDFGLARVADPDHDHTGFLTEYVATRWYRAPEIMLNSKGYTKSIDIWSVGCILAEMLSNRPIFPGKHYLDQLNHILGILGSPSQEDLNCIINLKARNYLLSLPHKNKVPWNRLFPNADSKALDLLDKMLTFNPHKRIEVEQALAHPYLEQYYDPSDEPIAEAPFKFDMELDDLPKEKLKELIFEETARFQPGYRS

On to `O=[N+]([O-])c1cnc(Sc2nnc(O)n2-c2ccc3c(c2)OCCO3)s1` [compound 1, BI-78D3], for which the affinity, expressed as Ki, was 800 ± 200 nM.
